Literature values, collected in paper PMC4546328, “Effects of Inhibiting Dipeptidyl Peptidase-4 (DPP4) in Cows with Subclinical Ketosis” (PLoS ONE, 2015).

Parameters: method as in earlier work
Conditions: prescribing information; primarily small increase of neutrophil granulocytes counts

N[C@@H](CC(=O)N1CCn2c(nnc2C(F)(F)F)C1)Cc1cc(F)c(F)cc1F [sitagliptin]
effect on WBC: slight increase in WBC
